Laboratory results as given in ChEMBL document CHEMBL5661943, “ASAP - In vitro antiviral effect” (2024).

Columns and labels:
[1] = system: Zika virus; assay: Functional CPE-based assay to measure dose dependent changes in antiviral-drug inhibitory efficacy against Zika virus MR766 in Vero E6 miRFP670 cells. Cells are treated with antiviral candidates that are serially diluted. EC50 is reported via analysis of MTS assay as a readout of CPE. The assay has been performed by KU Leuven.; type: organism-based, Chlorocebus sabaeus, Vero C1008; details: Zika virus
[2] = system: dengue virus type 2; assay: Functional assay to measure dose dependent changes in antiviral-drug inhibitory efficacy against Dengue virus type 2 New Guinea C in Vero E6 miRFP670 cells (cotreated with P-gp inhibitor, CP100356). Cells are treated with antiviral candidates that are serially diluted, following infection, cells are fixed. EC50 is reported via analysis of fluorescence intensity using high-content imager. The …; type: organism-based, Chlorocebus sabaeus, Vero C1008; details: Dengue virus

## NCc1cccc(NC(=O)c2cc(Cl)cc(C(N)=O)c2)c1
[1]; Vero C1008
  EC50: < 0.391 µM
[1]; Vero C1008, Baseline response 0 %, Hill slope -0.109, Maximum measured 5.527 %, Maximum response 100 %, Minimum measured 1.124 %, R squared 0.046
  EC90: < 0.391 µM
[2]; Vero C1008
  EC50: > 50 µM
[2]; Vero C1008, Maximum measured 162.876 %, Minimum measured 96.337 %, P-gp concentration 500 nM, P-gp inhibitor CP100356
  EC90: > 50 µM

## NCc1cc(NC(=O)c2cc(Cl)cc(NC(=O)OCc3ccccc3)c2)cc([C@@H]2C[C@H]2C(=O)O)c1
[1]; Vero C1008
  EC50: > 50 µM
[1]; Vero C1008, Maximum measured -4.084 %, Minimum measured -7.869 %
  EC90: > 50 µM
[2]; Vero C1008
  EC50: > 12.5 µM
[2]; Vero C1008, Maximum measured 109.098 %, Minimum measured 97.886 %, P-gp concentration 500 nM, P-gp inhibitor CP100356
  EC90: > 12.5 µM

## O=C(Nc1cc(Cl)cc([C@H]2C[C@@H]2c2cccc(C3CCNCC3)c2)c1)OCc1ccccc1
[1]; Vero C1008
  EC50: > 50 µM
[1]; Vero C1008, Maximum measured 2.266 %, Minimum measured -4.892 %
  EC90: > 50 µM
[2]; Vero C1008
  EC50: 1.94 µM
[2]; Vero C1008, Baseline response 0 %, Hill slope -2.737, Maximum measured 87.189 %, Maximum response 100 %, Minimum measured 17.217 %, P-gp concentration 500 nM, R squared 0.653, P-gp inhibitor CP100356
  EC90: > 3.12 µM

## CCNC(=O)Nc1cc(Cl)cc(C(=O)Nc2ccc3c(c2)CNCCO3)c1
[1]; Vero C1008
  EC50: > 50 µM
[1]; Vero C1008, Baseline response 0 %, Hill slope 2.475, Maximum measured 7.686 %, Maximum response 100 %, Minimum measured -0.684 %, R squared 0.693
  EC90: > 50 µM
[2]; Vero C1008
  EC50: > 25 µM
[2]; Vero C1008, Maximum measured 150.987 %, Minimum measured 108.938 %, P-gp concentration 500 nM, P-gp inhibitor CP100356
  EC90: > 25 µM

## NCc1cccc(NC(=O)c2cc(Cl)cc(C3CC3)c2)c1
[1]; Vero C1008
  EC50: 15.7 µM
[1]; Vero C1008, Baseline response 0 %, EC90 CI (lower) 20.759 uM, EC90 CI (upper) 27.074 uM, Hill slope 5.361, Maximum measured 91.947 %, Maximum response 100 %, Minimum measured -3.838 %, R squared 0.99
  EC90: 23.7 µM
[2]; Vero C1008
  EC50: 21.6 µM
  EC90: 24.7 µM

## OCC#C[C@H](Nc1ccc2c(c1)CNC2)c1cc(Cl)cc2[nH]ncc12
[1]; Vero C1008
  EC50: > 50 µM
[1]; Vero C1008, Baseline response 0 %, Hill slope -0.322, Maximum measured 7.802 %, Maximum response 100 %, Minimum measured -1.073 %, R squared 0.225
  EC90: > 50 µM
[1]; Vero C1008, Maximum measured -0.957 %, Minimum measured -6.863 %
  EC90: > 50 µM
[2]; Vero C1008
  EC50: > 50 µM
[2]; Vero C1008, Baseline response 0 %, Hill slope -0.86, Maximum measured 99.542 %, Maximum response 100 %, Minimum measured 57.079 %, P-gp concentration 500 nM, R squared 0.671, P-gp inhibitor CP100356
  EC90: > 50 µM

## NCc1cccc(NC(=O)c2cc(Cl)cc3[nH]ncc23)c1
[1]; Vero C1008
  EC50: > 50 µM
[1]; Vero C1008, Maximum measured 0.74 %, Minimum measured -1.239 %
  EC90: > 50 µM
[2]; Vero C1008
  EC50: > 50 µM
[2]; Vero C1008, Maximum measured 106.767 %, Minimum measured 104.405 %, P-gp concentration 500 nM, P-gp inhibitor CP100356
  EC90: > 50 µM

## O=C(NC1CCCCC1)c1cc(Cl)ccc1NS(=O)(=O)c1ccc(Oc2ccccc2Cl)cc1
[1]; Vero C1008
  EC50: > 50 µM
[1]; Vero C1008, Baseline response 0 %, Hill slope 0.673, Maximum measured 7.428 %, Maximum response 100 %, Minimum measured -1.415 %, R squared 0.499
  EC90: > 50 µM
[2]; Vero C1008
  EC50: 3.2 µM
  EC90: 3.72 µM

## O=C(Nc1cccc(-c2nnn[nH]2)c1)c1cc(Cl)cc(C2CC2)c1
[1]; Vero C1008
  EC50: > 50 µM
[1]; Vero C1008, Maximum measured 1.772 %, Minimum measured -2.796 %
  EC90: > 50 µM
[2]; Vero C1008
  EC50: > 50 µM
[2]; Vero C1008, Maximum measured 109.091 %, Minimum measured 105.083 %, P-gp concentration 500 nM, P-gp inhibitor CP100356
  EC90: > 50 µM

## CC(=O)NCc1cccc(NC(=O)c2cc(Cl)cc(NC(=O)OCc3ccccc3)c2)c1
[1]; Vero C1008
  EC50: > 50 µM
[1]; Vero C1008, Baseline response 0 %, Hill slope 0.809, Maximum measured 24.23 %, Maximum response 100 %, Minimum measured -4.371 %, R squared 0.519
  EC90: > 50 µM
[2]; Vero C1008
  EC50: 10.4 µM
[2]; Vero C1008, Baseline response 0 %, EC90 CI (lower) 4.143 uM, EC90 CI (upper) 6.94 uM, Hill slope -3.293, Maximum measured 105.977 %, Maximum response 100 %, Minimum measured 1.058 %, P-gp concentration 500 nM, R squared 0.979, P-gp inhibitor CP100356
  EC90: 20.4 µM

## CNC(=O)[C@H](Nc1cc(CN)cc(C(=O)O)c1)c1cc(Cl)cc(NC(=O)OCc2ccccc2)c1
[1]; Vero C1008
  EC50: > 50 µM
[1]; Vero C1008, Baseline response 0 %, Hill slope -2.362, Maximum measured 1.225 %, Maximum response 100 %, Minimum measured -2.193 %, R squared 0.027
  EC90: > 50 µM
[2]; Vero C1008
  EC50: > 50 µM
[2]; Vero C1008, Maximum measured 124.943 %, Minimum measured 103.159 %, P-gp concentration 500 nM, P-gp inhibitor CP100356
  EC90: > 50 µM

## O=C(Nc1cc(Cl)cc(C(=O)Nc2ccc3c(c2)CNCC3)c1)OCc1ccccc1
[1]; Vero C1008
  EC50: < 0.391 µM
[1]; Vero C1008, Baseline response 0 %, Hill slope -0.286, Maximum measured 50.319 %, Maximum response 100 %, Minimum measured -3.545 %, R squared 0.037
  EC90: < 0.391 µM
[2]; Vero C1008
  EC50: 1.52 µM
  EC90: 1.8 µM
